Laboratory results taken from US20050282743A1, “Molecular interactions in cells” (Arbor Vita Corporation, priority 2001, published 2005).
Ends that are not written are not given here. Peptide text beside a SMILES is read from it. * marks the point of attachment. Biotin = O=C1N[C@H]2[C@H](CS[C@H]2CCCCC(=O)*)N1

What was measured:
[1] = target: T1, PDZ protein (GST-PDZ fusion) (Homo sapiens, UniProt Q9UQ26); experiment: G' assay (10 uM PL peptide), results of TABLE 7 and TABLE 12; type: binding; details: PDZ KIAA0751(L), PDZ Domain 1
T1 construct: made in house; host or cells: E. coli (DH5alpha, BL21 or JM109)
T1 sequence (Q9UQ26 1-1411): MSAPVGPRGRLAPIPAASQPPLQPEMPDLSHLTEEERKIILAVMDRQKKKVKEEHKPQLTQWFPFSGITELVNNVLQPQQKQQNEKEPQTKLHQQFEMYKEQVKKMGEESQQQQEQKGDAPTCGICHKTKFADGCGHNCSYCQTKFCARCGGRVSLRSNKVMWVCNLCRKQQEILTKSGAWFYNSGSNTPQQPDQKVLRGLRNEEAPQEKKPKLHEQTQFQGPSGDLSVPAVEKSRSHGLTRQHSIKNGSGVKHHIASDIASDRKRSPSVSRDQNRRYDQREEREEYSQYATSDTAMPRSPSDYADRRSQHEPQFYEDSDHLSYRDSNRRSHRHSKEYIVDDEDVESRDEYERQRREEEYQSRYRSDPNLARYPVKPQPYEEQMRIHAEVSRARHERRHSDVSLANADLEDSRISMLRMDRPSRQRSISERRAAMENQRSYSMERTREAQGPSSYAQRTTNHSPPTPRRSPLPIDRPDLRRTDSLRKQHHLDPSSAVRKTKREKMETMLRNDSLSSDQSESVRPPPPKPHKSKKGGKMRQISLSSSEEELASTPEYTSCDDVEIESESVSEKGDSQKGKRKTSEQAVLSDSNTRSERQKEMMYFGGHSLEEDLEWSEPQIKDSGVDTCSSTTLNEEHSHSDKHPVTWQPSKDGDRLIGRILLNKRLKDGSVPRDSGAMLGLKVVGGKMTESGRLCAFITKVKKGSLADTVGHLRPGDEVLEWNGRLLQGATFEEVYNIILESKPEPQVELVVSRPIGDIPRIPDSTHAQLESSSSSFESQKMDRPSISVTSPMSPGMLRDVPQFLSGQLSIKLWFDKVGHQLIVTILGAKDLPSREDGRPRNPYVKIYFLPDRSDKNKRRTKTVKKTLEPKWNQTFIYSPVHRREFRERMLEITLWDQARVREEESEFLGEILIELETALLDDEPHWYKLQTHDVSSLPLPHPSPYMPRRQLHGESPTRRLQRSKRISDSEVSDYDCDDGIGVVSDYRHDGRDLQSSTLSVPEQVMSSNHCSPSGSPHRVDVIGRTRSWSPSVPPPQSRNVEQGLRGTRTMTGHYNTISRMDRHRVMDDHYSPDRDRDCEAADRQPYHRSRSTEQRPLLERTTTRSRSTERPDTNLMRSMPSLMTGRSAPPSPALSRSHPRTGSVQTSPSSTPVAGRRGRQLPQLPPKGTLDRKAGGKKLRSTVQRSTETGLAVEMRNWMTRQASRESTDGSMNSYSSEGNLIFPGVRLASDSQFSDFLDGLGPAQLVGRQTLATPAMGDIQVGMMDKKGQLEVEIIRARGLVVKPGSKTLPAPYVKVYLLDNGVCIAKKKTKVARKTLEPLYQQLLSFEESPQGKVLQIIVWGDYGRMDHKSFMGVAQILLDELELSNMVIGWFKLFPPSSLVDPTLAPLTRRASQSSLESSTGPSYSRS
Summary of the method: (§1)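 Biotin-PL peptide (N-term label), 10 uM vs GST-PDZ; protein 5 ug/ml by default. A450 nm binned: 1 = 0-1, 2 = 1-2, 3 = 2-3, 4 = 3-4, 5 = >4 on >2 repeats, 0 = no binding.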

[2] = target: T2, PDZ protein (GST-PDZ fusion) (Rattus norvegicus, UniProt Q9JLU4); experiment: as above; type: binding; details: PDZ rat SHANK 3, PDZ Domain 1
T2 construct: made in house; host or cells: E. coli (DH5alpha, BL21 or JM109)
Summary of the method: as §1

T2 sequence (Q9JLU4 whole entry, the tested form may be a part): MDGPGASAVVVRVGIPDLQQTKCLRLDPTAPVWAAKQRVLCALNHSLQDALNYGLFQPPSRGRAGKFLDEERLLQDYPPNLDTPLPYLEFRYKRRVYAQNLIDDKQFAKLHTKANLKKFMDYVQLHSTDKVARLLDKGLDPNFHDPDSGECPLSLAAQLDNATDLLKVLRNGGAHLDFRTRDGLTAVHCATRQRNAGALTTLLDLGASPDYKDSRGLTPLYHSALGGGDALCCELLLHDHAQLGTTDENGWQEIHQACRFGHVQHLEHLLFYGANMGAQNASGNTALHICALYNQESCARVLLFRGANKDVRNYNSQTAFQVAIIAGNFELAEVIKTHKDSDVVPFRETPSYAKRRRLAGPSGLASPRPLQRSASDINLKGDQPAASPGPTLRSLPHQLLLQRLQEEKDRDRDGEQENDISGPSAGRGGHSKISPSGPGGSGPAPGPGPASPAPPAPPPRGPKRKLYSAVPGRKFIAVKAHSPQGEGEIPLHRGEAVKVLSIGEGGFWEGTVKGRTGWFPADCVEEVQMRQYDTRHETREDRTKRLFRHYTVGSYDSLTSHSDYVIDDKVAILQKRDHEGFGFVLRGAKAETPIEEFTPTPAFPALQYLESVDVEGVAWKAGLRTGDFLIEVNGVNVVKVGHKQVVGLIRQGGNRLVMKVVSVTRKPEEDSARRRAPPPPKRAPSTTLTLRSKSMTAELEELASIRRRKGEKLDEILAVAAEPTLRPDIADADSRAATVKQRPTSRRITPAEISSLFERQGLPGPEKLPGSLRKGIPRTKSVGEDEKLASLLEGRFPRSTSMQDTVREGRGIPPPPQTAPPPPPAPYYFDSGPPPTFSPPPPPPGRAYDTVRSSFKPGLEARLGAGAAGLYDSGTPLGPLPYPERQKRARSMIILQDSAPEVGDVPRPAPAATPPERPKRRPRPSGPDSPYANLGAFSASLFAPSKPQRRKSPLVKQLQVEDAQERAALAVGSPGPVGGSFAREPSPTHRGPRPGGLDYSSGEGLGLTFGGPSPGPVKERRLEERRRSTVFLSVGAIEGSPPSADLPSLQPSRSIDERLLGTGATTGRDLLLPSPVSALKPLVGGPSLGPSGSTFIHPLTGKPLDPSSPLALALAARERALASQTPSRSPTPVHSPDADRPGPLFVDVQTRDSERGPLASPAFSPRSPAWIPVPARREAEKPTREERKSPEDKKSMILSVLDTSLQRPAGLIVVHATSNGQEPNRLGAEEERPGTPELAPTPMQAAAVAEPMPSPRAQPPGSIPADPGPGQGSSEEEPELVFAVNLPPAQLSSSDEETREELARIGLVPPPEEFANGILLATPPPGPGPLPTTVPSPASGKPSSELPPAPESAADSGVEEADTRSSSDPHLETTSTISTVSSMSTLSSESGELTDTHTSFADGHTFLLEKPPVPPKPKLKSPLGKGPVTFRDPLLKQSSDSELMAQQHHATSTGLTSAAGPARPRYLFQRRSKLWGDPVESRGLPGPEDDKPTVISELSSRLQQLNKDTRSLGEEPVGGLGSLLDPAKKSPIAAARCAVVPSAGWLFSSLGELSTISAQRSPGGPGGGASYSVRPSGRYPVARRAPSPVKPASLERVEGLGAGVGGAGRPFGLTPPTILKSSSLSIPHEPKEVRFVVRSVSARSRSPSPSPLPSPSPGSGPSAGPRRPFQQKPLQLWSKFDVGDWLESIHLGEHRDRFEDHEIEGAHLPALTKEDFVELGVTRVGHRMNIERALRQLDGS

Molecule | Classification [1] | Classification [2]
CC[C@H](C)[C@H](NC(=O)[C@H](Cc1ccc(O)cc1)NC(=O)[C@H](CC(C)C)NC(=O)[C@H](CCC(N)=O)NC(=O)[C@H](Cc1c[nH]cn1)NC(=O)[C@H](CO)NC(=O)[C@H](C)NC(=O)[C@H](CC(C)C)NC(=O)[C@@H](NC(=O)[C@H](CC(=O)O)NC(=O)[C@H](CCSC)NC(=O)[C@H](Cc1ccccc1)NC(=O)[C@@H]1CCCN1C(=O)[C@H](CCCNC(=N)N)NC(=O)[C@@H](NC(=O)[C@H](CC(C)C)NC(=O)[C@H](CC(N)=O)NC(=O)[C@H](CC(=O)O)NC(=O)[C@@H](NC(=O)[C@H](CO)NC(=O)CCCC[C@@H]1SC[C@@H]2NC(=O)N[C@@H]21)[C@@H](C)O)C(C)C)[C@@H](C)O)C(=O)O [presenilin-2] (Biotin-STDNLVRPFMDTLASHQLYI-OH; C-terminus assumed) | 1 (A450 nm 0-1) | –
A2AA_HUMAN (modified) (Biotin-HDFRRAFKKILARGDRKRIV; not fully specified) | 3 (A450 nm 2-3) | –
PPATPSPRLALPAHHNATRL (Biotin-PPATPSPRLALPAHHNATRL) [Na+/Pi cotransporter 2] | – | 4 (A450 nm 3-4)
CC(C)C[C@H](NC(=O)[C@H](CC(=O)O)NC(=O)[C@H](CO)NC(=O)[C@H](CCC(=O)O)NC(=O)CNC(=O)[C@H](Cc1ccc(O)cc1)NC(=O)[C@H](CC(C)C)NC(=O)[C@H](C)NC(=O)[C@H](CO)NC(=O)[C@H](CO)NC(=O)[C@H](Cc1ccccc1)NC(=O)[C@H](C)NC(=O)[C@H](C)NC(=O)[C@H](Cc1ccc(O)cc1)NC(=O)[C@H](CC(=O)O)NC(=O)[C@H](CC(C)C)NC(=O)[C@H](C)NC(=O)CNC(=O)[C@@H]1CCCN1C(=O)[C@@H](NC(=O)CCCC[C@@H]1SC[C@@H]2NC(=O)N[C@@H]21)C(C)C)C(=O)O [a-actinin 2] (Biotin-VPGALDYAAFSSALYGESDL-OH; C-terminus assumed) | – | 1 (A450 nm 0-1)
